# Patent publication US7608718B2, “4,5-dihydro-1H-pyrazole derivatives having potent CB1-antagonistic activity” (Solvay Pharmaceuticals B.V., priority 2001, dated 2009)
row,melting point [°C],SMILES
1,132 to 134,CCCN(C)S(=O)(=O)N=C(NC)N1CC(c2ccccc2)C(c2ccc(Cl)cc2)=N1 (stereo not shown)
2,158 to 159,CN(C)S(=O)(=O)N=C(NCC(F)(F)F)N1CC(c2ccccc2)C(c2ccc(Cl)cc2)=N1 (stereo not shown)
3,192 to 194,CSC(=NS(=O)(=O)N1CCCCC1)N1CC(c2ccccc2)C(c2ccc(Cl)cc2)=N1 (stereo not shown)
4,202 to 204,CSC(=NS(=O)(=O)N1CCOCC1)N1CC(c2ccccc2)C(c2ccc(Cl)cc2)=N1 (stereo not shown)
5,181 to 185,CSC(=NS(=O)(=O)N(C)C)N1CC(c2c(F)cccc2F)C(c2ccc(Cl)cc2)=N1 (stereo not shown)
6,150 to 151,CCN(CC)S(=O)(=O)N=C(NC1CC1)N1CC(c2ccccc2)C(c2ccc(Cl)cc2)=N1 (stereo not shown)
7,178,CCN(C)C(=NS(=O)(=O)N1CCCCC1)N1CC(c2ccccc2)C(c2ccc(Cl)cc2)=N1 (stereo not shown)
8,145 to 147,CCN(c1ccccc1)S(=O)(=O)N=C(NC)N1CC(c2ccccc2)C(c2ccc(Cl)cc2)=N1 (stereo not shown)
9,168 to 170,CNC(=NS(=O)(=O)N1CCCCC1)N1CC(c2cccc(C(F)(F)F)c2)C(c2ccc(Cl)cc2)=N1 (stereo not shown)
10,65 to 68,CNC(=NS(=O)(=O)N(C)C)N1CC(c2cccc(C(F)(F)F)c2)C(c2ccc(Cl)cc2)=N1 (stereo not shown)
11,125 to 128,CCN(C)S(=O)(=O)N=C(NC)N1CC(c2cccnc2)C(c2ccc(Cl)cc2)=N1 (stereo not shown)
12,129 to 131,"CCCN(CC)S(=O)(=O)N=C(NC)N1CC(c2ccccc2)C(c2ccc(Cl)cc2)=N1 (stereo not shown) [Example 1, 3-(4-Chlorophenyl)-N′-(((ethyl)propylamino)sulfonyl)-N-methyl-4-phenyl-4,5-dihydro-1H-pyrazole-1-carboxamidine]"
13,104 to 106,"CCN(CC)S(=O)(=O)N=C(NCCO)N1CC(c2ccccc2)C(c2ccc(Cl)cc2)=N1 (stereo not shown) [Example 3, 3-(4-Chlorophenyl)-N′-((diethylamino)sulfonyl)-N-(2-hydroxyethyl)-4-phenyl-4,5-dihydro-1H-pyrazole-1-carboxamidine]"
14,123 to 126,"CN(C)S(=O)(=O)N=C(NCCO)N1CC(c2ccccc2)C(c2ccc(Cl)cc2)=N1 (stereo not shown) [Example 18, 3-(4-Chlorophenyl)-N′-((dimethylamino)sulfonyl)-N-(2-hydroxyethyl)-4-phenyl-4,5-dihydro-1H-pyrazole-1-carboxamidine]"
15,141 to 142,"CCCN(CCC)S(=O)(=O)N=C(NC)N1CC(c2ccccc2)C(c2ccc(Cl)cc2)=N1 (stereo not shown) [Example 26, 3-(4-Chlorophenyl)-N′-((dipropylamino)sulfonyl)-N-methyl-4-phenyl-4,5-dihydro-1H-pyrazole-1-carboxamidine]"
16,127 to 129,"CCCNC(=NS(=O)(=O)N(C)C)N1CC(c2ccccc2)C(c2ccc(Cl)cc2)=N1 (stereo not shown) [Example 31, 3-(4-Chlorophenyl)-N′-((dimethylamino)sulfonyl)-N-propyl-4-phenyl-4,5-dihydro-1H-pyrazole-1-carboxamidine]"
17,128 to 131,"CN(C)S(=O)(=O)N=C(NCCF)N1CC(c2ccccc2)C(c2ccc(Cl)cc2)=N1 (stereo not shown) [Example 32, 3-(4-Chlorophenyl)-N′-((dimethylamino)sulfonyl)-N-(2-fluoroethyl)-4-phenyl-4,5-dihydro-1H-pyrazole-1-carboxamidine]"
18,170 to 172,"CONC(=NS(=O)(=O)N(C)C)N1CC(c2ccccc2)C(c2ccc(Cl)cc2)=N1 (stereo not shown) [Example 34, 3-(4-Chlorophenyl)-N′-((dimethylamino)sulfonyl)-N-methoxy-4-phenyl-4,5-dihydro-1H-pyrazole-1-carboxamidine]"
19,159 to 160,"CSC(=NS(=O)(=O)N(C)C)N1CC(c2ccccc2)C(c2ccc(Cl)cc2)=N1 (stereo not shown) [Example 36, 3-(4-Chlorophenyl)-N-((dimethylamino)sulfonyl)-4-phenyl-4,5-dihydro-1H-pyrazole-1-carboximidothioic acid methyl ester]"
